Test results taken from PMC12787000 (Molecules, 2025).

Key:
A375 cells [1] = conditions: A375, 24 h, compared to untreated control
Protocol: Changes in mitochondrial membrane potential were analyzed using the JC-1 Mitochondrial Membrane Potential Assay Kit (ab113850) according to the manufacturer’s instructions. […] After 24 h, cells were incubated with the JC-1 staining solution at 37 °C for 30 min in dark, washed with 1X Dilution Buffer, and analyzed by flow cytometry. […] The ratio of red J-aggregates to green JC-1 monomers was calculated to assess changes in mitochondrial membrane potential. Experiment was performed twice.

A375 cells [2] = assay: MTT cell viability assay, A375; assay type: cell-based; conditions: 72 h; for IC50: Homo sapiens, A-375, A375, MTT
Protocol: (§1) A375, MRC-5, and HaCaT cell lines were obtained from the American Type Culture Collection (ATCC). 518A2 cell line was kindly provided by Dr. […]ć. All cell lines were cultured in RPMI 1640 medium supplemented with 2 g/L glucose, 10% fetal bovine serum (FBS), and antibiotics. […] Cell viability was assessed using the MTT assay (Sigma Aldrich, #M5655). […] After 72 h of incubation, absorbance was measured at 570 nm using a Multiskan SkyHigh microplate reader (Thermo Fisher Scientific, Helsinki, Finland). Values were corrected by subtracting the absorbance measured in wells containing cell-free medium with tested compounds.

518A2 cells = assay: MTT cell viability assay, 518A2; assay type: cell-based; conditions: Homo sapiens; 518A2, MTT, 72 h
Protocol: as §1

A375R cells [3] = assay: MTT cell viability assay, vemurafenib-resistant A375R; assay type: cell-based; conditions: for IC50: A375R, MTT, 72 h
Protocol: as §1

[4] = test system: HaCaT (human keratinocytes); assay: MTT cell viability assay, HaCaT; assay type: cell-based; conditions: 72 h
Protocol: as §1

[5] = test system: MRC-5 (fetal fibroblasts); assay: MTT cell viability assay, MRC-5; assay type: cell-based; conditions: Homo sapiens, MRC5; MRC-5, MTT, 72 h
Protocol: as §1

A375 cells [6] = assay: Cellular uptake and subcellular distribution by LC-MS/MS; assay type: cell-based; conditions: A375, 25 μM, 24 h; for Compound accumulation normalized to telmisartan, Chromatin Bound: chromatin-bound nuclear fraction; for Compound accumulation normalized to telmisartan, Cytoplasm: cytoplasmic fraction; for Compound accumulation normalized to telmisartan, Cytoskeleton: cytoskeletal fraction; for Compound cell accumulation normalized to telmisartan, Whole Lysate: μmol compound per μg cell protein normalized to telmisartan
Protocol: Cells were then trypsinized, washed with PBS and pelleted. For whole cell lysates, cell pellet was dissolved in RIPA buffer on ice. Fractions and whole cell lysates were stored at -80 °C until use. Protein concentration of lysates was determined with Pierce BCA Protein assay kit (Thermo Fisher #23225), and cell accumulation was calculated as μmol of compound per μg of cell protein and normalized to telmisartan. Concentrations of telmisartan and its derivatives were determined using liquid chromatography-tandem mass spectrometry (LC-MS/MS) method in positive HESI mode. The analysis was performed on UHPLC chromatograph […] (Thermo Fisher Scientific Inc., Madison, WI, USA), coupled to a triple quadrupole mass spectrometer TSQ Quantum Access MAX (Thermo Fisher Scientific Inc., Madison, WI, USA) with heated electrospray ionization (HESI) interface. The column was Zorbax Extend C18 (150 mm × 4.6 mm, 5 μm particle size). […] Experiment was repeated twice.

AT1R = target: T1, AT1R (Homo sapiens, UniProt P30556); assay: Angiotensin II-induced Ca2+ release, Fluo-4 AM live-cell imaging; assay type: cell-based; conditions: 2 min; for Effect on AngII-induced Ca2+ increase (combination treatment): A375, 25 μM compound + 1 μM AngII
T1 construct: endogenous in cells; host or cells: A375 melanoma cells (ATCC)
T1 sequence (P30556 1-359): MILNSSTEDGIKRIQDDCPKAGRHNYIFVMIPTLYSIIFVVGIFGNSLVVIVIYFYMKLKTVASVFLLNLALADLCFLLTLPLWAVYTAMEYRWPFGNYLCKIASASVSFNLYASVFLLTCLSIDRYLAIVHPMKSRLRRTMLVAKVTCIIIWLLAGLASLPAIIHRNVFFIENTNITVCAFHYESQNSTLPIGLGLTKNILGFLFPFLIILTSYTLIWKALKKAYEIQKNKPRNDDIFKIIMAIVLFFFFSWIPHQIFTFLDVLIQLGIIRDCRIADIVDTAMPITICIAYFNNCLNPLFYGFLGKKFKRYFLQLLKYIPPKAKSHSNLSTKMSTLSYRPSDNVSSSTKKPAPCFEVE
Protocol: Fluo-4 AM calcium indicator dye (F14201, Molecular Probes, Eugene, OR, USA) was used to observe Ca^2+ dynamics upon treatment, per manufacturer’s instructions. Briefly, 5000 A375 cells/well were seeded in 96-well optical bottom black cell culture plates (165305, Thermo Scientific). Fluo-4 AM stock solution in DMSO was mixed with equal volume of 20% Pluronic F-127 to assist in dispersion of AM esters before dilution into the loading medium. Twenty-four hours after seeding medium was removed, and cells were washed with HBBS without calcium and magnesium. Cells were stained in HBSS medium with 1.25 μM Fluo-4-AM for 30 min at 37 °C. After incubation, cells were washed and incubated in complete medium (10%FBS RPMI) to allow de-esterification for 30 min and then treated with 1 μM human Angiotensin II (A9525, Sigma Aldrich), 50 μM telmisartan, compounds 1, 3, and 8, or the combinations. Images were taken before addition of the treatment (0 min) and after 2 min of treatment on Zeiss PALM MicroBeam Axio Observer Z1 microscope (Carl Zeiss MicroImaging GmbH, Oberkochen, Germany) with Zeiss LD Plan-Neofluar 20×/0.4 Korr, ∞/0–1.5 mm lens and AxioVision SE64 Rel.4.9.1 software. Experiment was repeated three times. Integrated density of Fluo-4 fluorescence at 2 min of exposure to treatment was calculated with Image J, and normalized to the baseline fluorescence at time 0, in at least two random fields for each condition. Conditions were compared with one-way ANOVA and Tukey’s multiple comparisons test. p < 0.05 was considered statistically significant.

A375R cells [7] = assay: Cell cycle distribution (PI, flow cytometry), A375R; assay type: cell-based; conditions: 25 µM, 72 h
Protocol: (§2) A375 and A375R cells were seeded in 6-well plates at a density of 150,000 cells per well. On the following day, the cells were treated with 25 µM concentrations of compounds 1, 3, and 8, as well as telmisartan. After 72 h of incubation, the cells were harvested using trypsin, washed with phosphate-buffered saline (PBS), fixed in ethanol, and stored at −20 °C until analysis. Ethanol-fixed cells were treated with RNase A (1 mg/mL) and stained with propidium iodide (PI; 400 µg/mL). A total of 20,000 events were recorded per sample. Quantitative analysis of the cell cycle phase distribution was performed by flow cytometry using a FACSCalibur flow cytometer (Becton Dickinson, San Jose, CA, USA) and BD CellQuest Pro Version 5.2.1 software. Experiment was performed three times. Cells under treatment were compared to controls for each cell phase separately with one-way ANOVA and Dunnett’s multiple comparison tests. p < 0.05 was considered statistically significant.

[8] = design: method as in PMID 11014323; conditions: males, oral intake of 320 mg; cited from earlier work
A375 cells [9] = assay: Cell cycle distribution (PI, flow cytometry), A375; assay type: cell-based; conditions: A375, 25 µM, 72 h
Protocol: as §2

A375 cells [10] = assay: Mitochondrial morphology staining (MitoTracker Green FM); assay type: cell-based; conditions: A375, 25 μM, 24 h
Protocol: For imaging of the mitochondrial morphology in live cells, A375 cells seeded in 96-well optical bottom plates, as above, were treated for 24 h with 25 μM telmisartan, compound 1, 3, or 8. Treatment was washed away, and cells were stained with 500 nM MitoTracker Green FM (#9074, Cell signaling Technology, Danvers, MA, USA) in RPMI without serum for 30 min at 37 °C. Cells were imaged on Zeiss PALM MicroBeam Axio Observer Z1 microscope (Carl Zeiss MicroImaging GmbH, Oberkochen, Germany) with Zeiss LD Plan-Neofluar 20×/0.4 Korr, ∞/0–1.5 mm lens and AxioVision software. Mitochondrial shape was quantified in images from two biological experimental repeats, in three random fields for each condition, using Image J Analyze Particles function. Images were first processed to 8-bit binary, and circularity and aspect ratio (major axis/minor axis) were calculated and plotted with Prism 9 (GraphPad Software, LLC, Boston, MA, USA). Treatments were compared with untreated control using one-way ANOVA and Dunnett’s multiple comparisons test. p < 0.05 was considered statistically significant.

N#CC(C#N)=NNc1ccc(OC(F)(F)F)cc1 [FCCP, carbonyl cyanide 4-(trifluoromethoxy) phenylhydrazone]
Ratio of red JC-1 aggregates to green JC-1 monomers (A375 cells [1]): lowest red/green ratio

CCCc1nc2c(C)cc(-c3nc4ccccc4n3C)cc2n1Cc1ccc(-c2ccccc2C(=O)O)cc1 [Telmisartan, reference compound]
IC50 (A375 cells [2]): 59.1 ± 4.17 µM
IC50 (518A2 cells): 70.2 ± 3.83 µM
Selectivity (A375R cells [3]; A375R versus normal cell lines (HaCaT, MRC-5), from IC50 values): > 2.40
IC50 (A375R cells [3]): 29.2 ± 3.88 µM
IC50 [4]: 148 ± 2.89 µM
IC50 [5]: 70.4 ± 5.61 µM
Compound accumulation normalized to telmisartan, Chromatin Bound (A375 cells [6]): 1.00
Compound accumulation normalized to telmisartan, Cytoplasm (A375 cells [6]): 1.00
Compound accumulation normalized to telmisartan, Cytoskeleton (A375 cells [6]): 1.00
Accumulation in the membrane fraction (A375 cells [6]; membrane fraction): 0.197 µmol/L
Compound accumulation normalized to telmisartan, Membrane (A375 cells [6]; membrane fraction): 1.00
Compound cell accumulation normalized to telmisartan, Whole Lysate (A375 cells [6]): 1.00
Effect on AngII-induced Ca2+ increase (combination treatment) (AT1R): prevented AngII-induced Ca^2+ increase
Cell cycle distribution (A375R cells [7]): cell cycle profile comparable to that of the untreated control cells
Maximum steady-state plasma level [8]: around 20 μM

CCCc1nc2c(C)cc(-c3nc4ccccc4n3C)cc2n1Cc1ccc(-c2ccccc2C(=O)NC(Cc2cn(C)c3ccccc23)C(=O)O)cc1 (stereo not drawn) [compound 1, 2-{[4′-(1,7′-dimethyl-2′-propyl-1H-[2,5′]bibenzoimidazolyl-3′-ylmethyl)-biphenyl-2-carbonyl]-amino}-3-(1-methyl-1H-indol-3-yl)-propionic acid]
Effect on cell viability at single concentration (A375 cells [2]; A375, 25 μM, MTT): significant reductions in cell viability
IC50 (A375 cells [2]): 27.2 ± 0.63 µM
IC50 (518A2 cells): 23.5 ± 2.08 µM
IC50 (A375R cells [3]): 19.7 ± 8.87 µM
IC50 [4]: 43.9 ± 3.42 µM
IC50 [5]: 26.7 ± 2.48 µM
Compound accumulation normalized to telmisartan, Chromatin Bound (A375 cells [6]): 36.22
Compound accumulation normalized to telmisartan, Cytoplasm (A375 cells [6]): 17.80
Compound accumulation normalized to telmisartan, Cytoskeleton (A375 cells [6]): 21.14
Compound accumulation normalized to telmisartan, Membrane (A375 cells [6]; membrane fraction): 106.59
Compound cell accumulation normalized to telmisartan, Whole Lysate (A375 cells [6]): 12.08
Effect on AngII-induced Ca2+ increase (combination treatment) (AT1R): did not prevent AngII-induced Ca^2+ increase
Effect of compound alone on baseline Ca2+ signaling (AT1R; A375, compound alone): no significant changes in the baseline Ca^2+ signaling
Cell cycle distribution (A375 cells [9]): increased accumulation of cells in the subG1 phase, albeit not statistically significant
Cell cycle distribution (A375R cells [7]): cell accumulation in the G0/G1 phase
Mitochondrial network morphology (A375 cells [10]): dramatic fission and clumping of mitochondria

CCCc1nc2c(C)cc(-c3nc4ccccc4n3C)cc2n1Cc1ccc(-c2ccccc2C(=O)NC(Cc2cnc[nH]2)C(=O)O)cc1 (stereo not drawn) [compound 2, 2-{[4′-(1,7′-dimethyl-2′-propyl-1H-[2,5′]bibenzoimidazolyl-3′-ylmethyl)-biphenyl-2-carbonyl]-amino}-3-(3H-imidazol-4-yl)-propionic acid]
IC50 (A375 cells [2]): > 150 µM
IC50 (518A2 cells): > 150 µM

CCCc1nc2c(C)cc(-c3nc4ccccc4n3C)cc2n1Cc1ccc(-c2ccccc2C(=O)NC(C(=O)O)C(C)CC)cc1 (stereo not drawn) [compound 4, 2-{[4′-(1,7′-dimethyl-2′-propyl-1H-[2,5′]bibenzoimidazolyl-3′-ylmethyl)-biphenyl-2-carbonyl]-amino}-3-methyl-pentanoic acid]
IC50 (A375 cells [2]): 43 ± 6.02 µM
IC50 (518A2 cells): 49 ± 3.17 µM

CCCc1nc2c(C)cc(-c3nc4ccccc4n3C)cc2n1Cc1ccc(-c2ccccc2C(=O)NCC(=O)O)cc1 [compound 5, {[4′-(1,7′-dimethyl-2′-propyl-1H-[2,5′]bibenzoimidazolyl-3′-ylmethyl)-biphenyl-2-carbonyl]-amino}-acetic acid]
IC50 (A375 cells [2]): 86.22 ± 0.64 µM
IC50 (518A2 cells): 81.5 ± 6.28 µM

CCCc1nc2c(C)cc(-c3nc4ccccc4n3C)cc2n1Cc1ccc(-c2ccccc2C(=O)NCCCC(=O)O)cc1 [compound 6, 4-{[4′-(1,7′-dimethyl-2′-propyl-1H-[2,5′]bibenzoimidazolyl-3′-ylmethyl)-biphenyl-2-carbonyl]-amino}-butyric acid]
IC50 (A375 cells [2]): 116 ± 6.94 µM
IC50 (518A2 cells): 89.2 ± 7.37 µM

CCCc1nc2c(C)cc(-c3nc4ccccc4n3C)cc2n1Cc1ccc(-c2ccccc2C(=O)NC(CC(C)C)C(=O)O)cc1 (stereo not drawn) [compound 7, 2-{[4′-(1,7′-dimethyl-2′-propyl-1H-[2,5′]bibenzoimidazolyl-3′-ylmethyl)-biphenyl-2-carbonyl]-amino}-4-methyl-pentanoic acid]
IC50 (A375 cells [2]): 43.2 ± 3.55 µM
IC50 (518A2 cells): 39.7 ± 2.4 µM
